In brackets after ≈: the same amount, converted by molar mass. Read-outs that look alike come from different tables or passages of the source.
Key:
[1] = system: S. aureus ATCC 29213; assay: microbe, parasite or virus in culture; type: cell-based; details: Staphylococcus aureus, ATCC29213
[2] = system: A. baumannii 7979; assay: microbe, parasite or virus in culture; type: cell-based; details: Acinetobacter baumannii; Table 1; A. baumannii 7979; broth microdilution; read-out: MIC
Description: (§1) Bacterial strains and growth conditions: All Gram-negative and Gram-positive bacterial strains (Supplementary Table S8) were cultured in Luria-Bertani (LB) or trypticase soy broth (TSB) agar plates, respectively, and incubated overnight at 37 °C unless specifically indicated. A single colony of the tested bacterial strains was inoculated into medium broth with shaking at 220 rpm for further experiments.
(§2) Minimal inhibitory concentrations: Antimicrobial susceptibility testing was performed by broth microdilution method for AMPs against Gram-positive and Gram-negative pathogens above mentioned, following the methods of document CLSI M100-ED34.[43] The MICs were defined as the lowest concentrations that inhibit visible growth of the tested bacteria. E. coli ATCC 25,922 and S. aureus ATCC 29,213 were served as quality controls.

[3] = system: A. baumannii AB11; assay: microbe, parasite or virus in culture; type: cell-based; details: Acinetobacter baumannii; Table 1; A. baumannii AB11; broth microdilution; read-out: MIC
Description: as §1, §2

[4] = system: E. coli ATCC 25922; assay: microbe, parasite or virus in culture; type: cell-based; details: Escherichia coli, ATCC25922; Table 1; E. coli ATCC 25922; broth microdilution; read-out: MIC
Description: as §1, §2

[5] = system: E. faecalis ES01; assay: microbe, parasite or virus in culture; type: cell-based; details: Enterococcus faecalis
Description: as §1, §2

[6] = system: E. faecalis J2; assay: microbe, parasite or virus in culture; type: cell-based; details: Enterococcus faecalis
Description: as §1, §2

[7] = system: E. faecalis JH2-2; assay: microbe, parasite or virus in culture; type: cell-based; details: Enterococcus faecalis, JH22
Description: as §1, §2

[8] = system: E. faecalis SF23-1; assay: microbe, parasite or virus in culture; type: cell-based; details: Enterococcus faecalis, SF231
Description: as §1, §2

[9] = system: E. faecium HFY01; assay: microbe, parasite or virus in culture; type: cell-based; details: Enterococcus faecium
Description: as §1, §2

[10] = system: E. faecium MC38; assay: microbe, parasite or virus in culture; type: cell-based; details: Enterococcus faecium
Description: as §1, §2

[11] = system: E. faecium QF31; assay: microbe, parasite or virus in culture; type: cell-based; details: Enterococcus faecium
Description: as §1, §2

[12] = system: K. pneumoniae 9-1; assay: microbe, parasite or virus in culture; type: cell-based; details: Klebsiella pneumoniae, 91; Table 1; K. pneumoniae 9-1; broth microdilution; read-out: MIC
Description: as §1, §2

[13] = system: P. aeruginosa PA14; assay: microbe, parasite or virus in culture; type: cell-based; details: Pseudomonas aeruginosa; Table 1; P. aeruginosa PA14; broth microdilution; read-out: MIC
Description: as §1, §2

[14] = system: P. aeruginosa PAO1; assay: microbe, parasite or virus in culture; type: cell-based; details: Pseudomonas aeruginosa; Table 1; P. aeruginosa PAO1; broth microdilution; read-out: MIC
Description: as §1, §2

[15] = system: S. agalactiae DL03; assay: microbe, parasite or virus in culture; type: cell-based; details: Streptococcus agalactiae
Description: as §1, §2

[16] = system: S. aureus M147-2; assay: microbe, parasite or virus in culture; type: cell-based; details: Staphylococcus aureus, M1472
Description: as §1, §2

[17] = system: S. aureus M92-1; assay: microbe, parasite or virus in culture; type: cell-based; details: Staphylococcus aureus, M921
Description: as §1, §2

[18] = system: S. aureus YZSA-15; assay: microbe, parasite or virus in culture; type: cell-based; details: Staphylococcus aureus, YZSA15
Description: as §1, §2

[19] = system: S. aureus YZSA-21; assay: microbe, parasite or virus in culture; type: cell-based; details: Staphylococcus aureus, YZSA21
Description: as §1, §2

[20] = system: S. aureus YZSA-24; assay: microbe, parasite or virus in culture; type: cell-based; details: Staphylococcus aureus, YZSA24
Description: as §1, §2

[21] = system: S. pyogenes DL02; assay: microbe, parasite or virus in culture; type: cell-based; details: Streptococcus pyogenes
Description: as §1, §2

[22] = system: S. suis SH0918; assay: microbe, parasite or virus in culture; type: cell-based; details: Streptococcus suis
Description: as §1, §2

[23] = system: S. suis P1/7; assay: microbe, parasite or virus in culture; details: Streptococcus suis, P1/7
Description: as §1
as §2, with “bacteria.” for “bacteria. E. coli ATCC 25,922 and S. aureus ATCC 29,213 were served as quality controls.”

[24] = system: S. enteritis S1; assay: organism not typed; type: cell-based; details: Table 1; S. enteritis S1; broth microdilution; read-out: MIC
Description: as §1, §2

[25] = Table 1, S. aureus ATCC 29213, broth microdilution, CLSI M100-ED34, read-out: MIC
[26] = Table 1, E. faecalis ES01, ermB, vanB, broth microdilution, read-out: MIC
[27] = Table 1, E. faecalis J2, ermB, optrA, broth microdilution, read-out: MIC
[28] = Table 1, E. faecalis JH2-2, broth microdilution, read-out: MIC
[29] = Table 1, E. faecalis SF23-1, ermB, tetL, cfr, broth microdilution, read-out: MIC
[30] = Table 1, E. faecium HFY01, broth microdilution, read-out: MIC
[31] = Table 1, E. faecium MC38, ermB, optrA, broth microdilution, read-out: MIC
[32] = Table 1, E. faecium QF31, ermB, cfr, broth microdilution, read-out: MIC
[33] = Table 1, S. agalactiae DL03, ermB, broth microdilution, read-out: MIC
[34] = Table 1, S. aureus M147-2, ermB, tetL, cfr, broth microdilution, read-out: MIC
[35] = Table 1, S. aureus M92-1, ermB, tetL, optrA, broth microdilution, read-out: MIC
[36] = Table 1, S. aureus YZSA-15, ermC, vanB, broth microdilution, read-out: MIC
[37] = Table 1, S. aureus YZSA-21, ermC, broth microdilution, read-out: MIC
[38] = Table 1, S. aureus YZSA-24, ermC, mecA, broth microdilution, read-out: MIC
[39] = Table 1, S. pyogenes DL02, ermB, broth microdilution, read-out: MIC
[40] = Table 1, S. suis SH0918, ermB, tetO, optrA, broth microdilution, read-out: MIC

Row | SMILES | MIC [1, 25] | MIC [2] | MIC [3] | MIC [4] | MIC [5, 26] | MIC [6, 27] | MIC [7, 28] | MIC [8, 29] | MIC [9, 30] | MIC [10, 31] | MIC [11, 32] | MIC [15, 33] | MIC [16, 34] | MIC [17, 35] | MIC [18, 36] | MIC [19, 37] | MIC [20, 38] | MIC [21, 39] | MIC [22, 40] | MIC [23] | further results
1 | CCC[C@@H]1C[C@@H](C(=O)N[C@@H]([C@H]2O[C@H](SC)[C@H](O)[C@@H](O)[C@H]2O)[C@H](C)Cl)N(C)C1 [CLI, clindamycin] | – | > 64 µg/mL | 0.5 µg/mL (≈ 1.18 µM) | > 64 µg/mL | > 64 µg/mL | > 64 µg/mL | 0.5 µg/mL (≈ 1.18 µM) | > 64 µg/mL | 0.5 µg/mL (≈ 1.18 µM) | > 64 µg/mL | > 64 µg/mL | > 64 µg/mL | > 64 µg/mL | > 64 µg/mL | > 64 µg/mL | > 64 µg/mL | > 64 µg/mL | > 64 µg/mL | > 64 µg/mL | 0.125 µg/mL (≈ 0.294 µM) | MIC [1]: 0.125 µg/mL (≈ 0.294 µM); MIC [12]: > 64 µg/mL; MIC [13]: > 64 µg/mL; MIC [14]: > 64 µg/mL; MIC [24]: > 64 µg/mL
2 | CC[C@H]1OC(=O)[C@H](C)[C@@H](O[C@H]2C[C@@](C)(OC)[C@@H](O)[C@H](C)O2)[C@H](C)[C@@H](O[C@@H]2O[C@H](C)C[C@H](N(C)C)[C@H]2O)[C@](C)(O)C[C@@H](C)C(=O)[C@H](C)[C@@H](O)[C@]1(C)O [ERY, Erythromycin] | 1 µg/mL (≈ 1.36 µM) | – | – | – | > 64 µg/mL | > 64 µg/mL | 0.25 µg/mL (≈ 0.341 µM) | > 64 µg/mL | 2 µg/mL (≈ 2.73 µM) | > 64 µg/mL | > 64 µg/mL | > 64 µg/mL | > 64 µg/mL | > 64 µg/mL | > 64 µg/mL | > 64 µg/mL | > 63 µg/mL | > 64 µg/mL | > 64 µg/mL | 0.125 µg/mL (≈ 0.17 µM) | –
3 | CN[C@H](CC(C)C)C(=O)N[C@H]1C(=O)N[C@@H](CC(N)=O)C(=O)N[C@H]2C(=O)N[C@H]3C(=O)N[C@H](C(=O)N[C@H](C(=O)O)c4cc(O)cc(O)c4-c4cc3ccc4O)[C@H](O)c3ccc(c(Cl)c3)Oc3cc2cc(c3O[C@@H]2O[C@H](CO)[C@@H](O)[C@H](O)[C@H]2O[C@H]2C[C@](C)(N)[C@H](O)[C@H](C)O2)Oc2ccc(cc2Cl)[C@H]1O [VAN, vancomycin] | – | – | – | – | – | – | – | – | – | – | – | – | – | – | – | – | – | – | – | < 0.06 µg/mL | MIC [1]: 1 µg/mL (≈ 0.69 µM); MIC ([5]; ES01): 16 µg/mL (≈ 11 µM); MIC ([6]; J2): 2 µg/mL (≈ 1.38 µM); MIC [7]: 2 µg/mL (≈ 1.38 µM); MIC [8]: 2 µg/mL (≈ 1.38 µM); MIC ([9]; HFY01): 0.5 µg/mL (≈ 0.345 µM); MIC ([10]; MC38): 2 µg/mL (≈ 1.38 µM); MIC ([11]; QF31): 2 µg/mL (≈ 1.38 µM); MIC ([15]; DL03): 0.125 µg/mL (≈ 0.0863 µM); MIC [16]: 0.5 µg/mL (≈ 0.345 µM); MIC [17]: 1 µg/mL (≈ 0.69 µM); MIC [18]: 16 µg/mL (≈ 11 µM); MIC [19]: 1 µg/mL (≈ 0.69 µM); MIC [20]: < 0.06 µg/mL; MIC ([21]; DL02): < 0.06 µg/mL; MIC ([22]; SH0918): < 0.06 µg/mL

Continued, in another order:

Row | MIC [1, 25] | MIC [2] | MIC [3] | MIC [4] | SMILES | MIC [5, 26] | MIC [6, 27] | MIC [7, 28] | MIC [8, 29] | MIC [9, 30] | MIC [10, 31] | MIC [11, 32] | MIC [15, 33] | MIC [16, 34] | MIC [17, 35] | MIC [18, 36] | MIC [19, 37] | MIC [20, 38] | MIC [21, 39] | MIC [22, 40] | MIC [23] | further results
4 | 0.25 µg/mL (≈ 0.563 µM) | > 64 µg/mL | < 0.06 µg/mL | 1 µg/mL (≈ 2.25 µM) | C[C@H]1c2cccc(O)c2C(=O)C2=C(O)[C@]3(O)C(=O)C(C(N)=O)=C(O)[C@@H](N(C)C)[C@@H]3[C@@H](O)[C@@H]21 [DOX, doxycycline] | 0.5 µg/mL (≈ 1.13 µM) | 16 µg/mL (≈ 36 µM) | 4 µg/mL (≈ 9 µM) | 16 µg/mL (≈ 36 µM) | < 0.06 µg/mL | 16 µg/mL (≈ 36 µM) | 16 µg/mL (≈ 36 µM) | < 0.06 µg/mL | 16 µg/mL (≈ 36 µM) | 16 µg/mL (≈ 36 µM) | 0.25 µg/mL (≈ 0.563 µM) | 0.25 µg/mL (≈ 0.563 µM) | 0.5 µg/mL (≈ 1.13 µM) | 2 µg/mL (≈ 4.5 µM) | 16 µg/mL (≈ 36 µM) | 0.125 µg/mL (≈ 0.281 µM) | MIC [12]: > 64 µg/mL; MIC [13]: 16 µg/mL (≈ 36 µM); MIC [14]: 8 µg/mL (≈ 18 µM); MIC [24]: > 64 µg/mL
5 | – | > 64 µg/mL | > 64 µg/mL | 0.25 µg/mL (≈ 0.574 µM) | C[C@H]1[C@H](NC(=O)/C(=N\OC(C)(C)C(=O)O)c2csc(N)n2)C(=O)N1S(=O)(=O)O [ATM, Aztreonam] | – | – | – | – | – | – | – | – | – | – | – | – | – | – | – | – | MIC [12]: > 64 µg/mL; MIC [13]: 4 µg/mL (≈ 9.19 µM); MIC [14]: 2 µg/mL (≈ 4.59 µM); MIC [24]: 2 µg/mL (≈ 4.59 µM)
6 | 1 µg/mL (≈ 2.96 µM) | – | – | – | CC(=O)NC[C@H]1CN(c2ccc(N3CCOCC3)c(F)c2)C(=O)O1 [LZD, linezolid] | 2 µg/mL (≈ 5.93 µM) | 8 µg/mL (≈ 23.7 µM) | 0.5 µg/mL (≈ 1.48 µM) | 16 µg/mL (≈ 47.4 µM) | 2 µg/mL (≈ 5.93 µM) | 2 µg/mL (≈ 5.93 µM) | 2 µg/mL (≈ 5.93 µM) | 1 µg/mL (≈ 2.96 µM) | 8 µg/mL (≈ 23.7 µM) | 8 µg/mL (≈ 23.7 µM) | 0.5 µg/mL (≈ 1.48 µM) | 1 µg/mL (≈ 2.96 µM) | 0.5 µg/mL (≈ 1.48 µM) | < 0.06 µg/mL | 8 µg/mL (≈ 23.7 µM) | 0.125 µg/mL (≈ 0.371 µM) | –

Source: PMC12203862, “BroadAMP-GPT: AI-Driven generation of broad-spectrum antimicrobial peptides for combating multidrug-resistant ESKAPE pathogens” (Gut Microbes, 2025)
